In patent US20040106632A1, “Salt of thiazolidinedione and its polymorphs as antidiabetic agents and method for obtaining them” (priority 2001, published 2004):

What was measured:
oral absorption profile = assay type: in vivo; conditions: compared with the free base
[1] = hygroscopicity / solvate formation on purification; assay type: physicochemical
[2] = stability (solid and aqueous solution); assay type: physicochemical
aqueous solubility = assay type: physicochemical

| Structure (SMILES) | oral absorption profile (oral absorption profile) | hygroscopicity or formation of solvates [1] | stability [2] | aqueous solubility (aqueous solubility; water) | solubility (in words) (aqueous solubility; aqueous) |
| --- | --- | --- | --- | --- | --- |
| COc1cc(N(C)CCOc2ccc(CC3SC(=O)NC3=O)cc2)ncn1.[Na] (stereo not drawn) [Sodium Salt, sodium salt of 5-(4-{2-[(6-methoxy-pyrimydin-4-yl)-methyl-amino]-ethoxy}-benzyl)-thiazolidin-2,4-dione] | better oral absorption profile than the free base | without problems of hygroscopicity or formation of solvates | good stability | higher than 1 mg/ml | – |
| COc1cc(N(C)CCOc2ccc(CC3SC(=O)NC3=O)cc2)ncn1 (stereo not drawn) [Compound I, 5-(4-{2-[(6-methoxypyrimydin-4-yl)-methyl-amino]-ethoxyl}-benzyl)-thiazolidin-2,4-dione] | – | – | problems of stability | – | problems of stability and solubility |
